Test results published in patent publication US12098145B2 (Libra Therapeutics, Inc., priority 2022, dated 2024).

Molecular target: T1, TRPML1 (Homo sapiens, UniProt Q9GZU1)
T1 construct: expressed in transfected cells; host or cells: HEK T-REx cells stably expressing GCaMP6f and TRPML1
Test: Cellular TRPML1 assay (FLIPR, GCaMP6f calcium read-out)
Assay type: cell-based
Conditions: HEKT-REx/GCaMP6f/TRPML1 cells, FLIPR TETRA, kinetic response over 300 seconds; read-out: TRPML1 FLIPR pEC50 (converted)
Method in brief: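 HEK T-REx cells stably expressing TRPML1 and GCaMP6f, seeded 24 h before in Optimem + 0.5% FBS. After ~10 min pre-incubation at room temperature, compounds in Ca2+-free Tyrode's buffer were injected on FLIPR Tetra (final DMSO 0.5%). Calcium fluorescence kinetics followed for 300 s.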

T1 sequence (Q9GZU1 whole entry): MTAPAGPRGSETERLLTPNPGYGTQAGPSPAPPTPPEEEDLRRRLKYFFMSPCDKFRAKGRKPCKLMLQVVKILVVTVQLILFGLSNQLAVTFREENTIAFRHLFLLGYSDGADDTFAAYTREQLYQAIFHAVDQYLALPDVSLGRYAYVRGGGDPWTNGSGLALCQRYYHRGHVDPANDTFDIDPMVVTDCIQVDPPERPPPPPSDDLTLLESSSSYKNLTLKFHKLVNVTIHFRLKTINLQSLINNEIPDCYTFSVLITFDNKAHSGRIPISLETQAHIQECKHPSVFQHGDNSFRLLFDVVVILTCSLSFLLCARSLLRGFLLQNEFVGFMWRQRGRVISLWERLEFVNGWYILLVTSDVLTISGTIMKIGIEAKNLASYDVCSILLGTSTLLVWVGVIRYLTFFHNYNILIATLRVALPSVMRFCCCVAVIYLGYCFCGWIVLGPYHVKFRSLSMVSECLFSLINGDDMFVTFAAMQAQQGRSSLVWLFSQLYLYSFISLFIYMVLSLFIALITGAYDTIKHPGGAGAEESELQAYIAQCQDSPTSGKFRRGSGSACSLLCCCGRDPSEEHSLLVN

SMILES	EC50 [nM]
CC1(C)CCCN(c2c(F)cc(NC(=O)c3nc(N4CCCC4)oc3CC(F)(F)F)cc2F)C1 [Example 213, N-(4-(3,3-dimethylpiperidin-1-yl)-3,5-difluorophenyl)-2-(pyrrolidin-1-yl)-5-(2,2,2-trifluoroethyl)oxazole-4-carboxamide]	10 to 1000
O=C(Nc1cc(F)c(N2CCC3CCCC32)c(F)c1)c1nc(N2CCCC2)oc1CC(F)(F)F (stereo not drawn) [Example 214, N-(3,5-difluoro-4-(hexahydrocyclopenta[b]pyrrol-1(2H)-yl)phenyl)-2-(pyrrolidin-1-yl)-5-(2,2,2-trifluoroethyl)oxazole-4-carboxamide]	10 to 1000
CCC1(CC)CN(c2nc(C(=O)Nc3cc(F)c(N4CCCCC4)c(F)c3)c(CC(F)(F)F)o2)C1 [Example 215, 2-(3,3-diethylazetidin-1-yl)-N-(3,5-difluoro-4-(piperidin-1-yl)phenyl)-5-(2,2,2-trifluoroethyl)oxazole-4-carboxamide]	10 to 1000
CCC1(CC)CN(c2nc(C(=O)Nc3ccc(N4CCCCC4)c(F)c3)c(CC(F)(F)F)o2)C1 [Example 216, 2-(3,3-diethylazetidin-1-yl)-N-(3-fluoro-4-(piperidin-1-yl)phenyl)-5-(2,2,2-trifluoroethyl)oxazole-4-carboxamide]	10 to 1000
Cc1cc(NC(=O)c2nc(N3CCCC3)oc2CC(F)(F)F)cc(F)c1N(C)C1CC2CC(C2)C1 (stereo not drawn) [Example 217, N-(4-(bicyclo[3.1.1]heptan-3-yl(methyl)amino)-3-fluoro-5-methylphenyl)-2-(pyrrolidin-1-yl)-5-(2,2,2-trifluoroethyl)oxazole-4-carboxamide]	10000 to 100000
O=C(Nc1cc(F)c(CN2CC3CC3C2)c(F)c1)c1nc(N2CCCC2)oc1CC(F)(F)F (stereo not drawn) [Example 218, N-(4-{3-azabicyclo [3.1.0]hexan-3-ylmethyl}-3,5-difluorophenyl)-2-(pyrrolidin-1-yl)-5-(2,2,2-trifluoroethyl)-1,3-oxazole-4-carboxamide]	10000 to 100000
CCc1oc(N2CC(CC)(OC)C2)nc1C(=O)Nc1cc(F)c(OC2CCOC2)c(F)c1 (stereo not drawn) [Example 234, N-(3,5-difluoro-4-((tetrahydrofuran-3-yl)oxy)phenyl)-5-ethyl-2-(3-ethyl-3-methoxyazetidin-1-yl)oxazole-4-carboxamide]	1000 to 10000
CCc1oc(N2CC(CC)(CC)C2)nc1C(=O)Nc1cc(F)c(OC2CCCOC2)c(F)c1 (stereo not drawn) [Example 236, 2-(3,3-diethylazetidin-1-yl)-N-(3,5-difluoro-4-((tetrahydro-2H-pyran-3-yl)oxy)phenyl)-5-ethyloxazole-4-carboxamide]	10 to 1000
CCc1oc(N2CC(C)(OC)C2)nc1C(=O)Nc1ccc(O[C@@H]2C[C@@H]3C[C@@H]3C2)c(C)c1 [Example 248, N-(4-(cis-bicyclo[3.1.0]hexan-3-yloxy)-3-methylphenyl)-5-ethyl-2-(3-methoxy-3-methylazetidin-1-yl)oxazole-4-carboxamide]	1000 to 10000
CCc1oc(N2CC(CC)(OC)C2)nc1C(=O)Nc1ccc(O[C@@H]2C[C@@H]3C[C@@H]3C2)c(F)c1F [Example 250]	10000 to 100000
CCc1oc(N2CCCC2)nc1C(=O)Nc1cc(C)c(NC2CC3CC(C3)C2)c(F)c1 (stereo not drawn) [Example 252, N-(4-(bicyclo[3.1.1]heptan-3-ylamino)-3-fluoro-5-methylphenyl)-5-ethyl-2-(pyrrolidin-1-yl)oxazole-4-carboxamide]	1000 to 10000
CCc1oc(N2CC(CC)(CC)C2)nc1C(=O)Nc1cc(C)c(NC2CC3CC(C3)C2)c(F)c1 (stereo not drawn) [Example 253, N-(4-(bicyclo[3.1.1]heptan-3-ylamino)-3-fluoro-5-methylphenyl)-2-(3,3-diethylazetidin-1-yl)-5-ethyloxazole-4-carboxamide]	1000 to 10000
CCc1oc(N2CC3COCC3C2)nc1C(=O)Nc1cc(F)c(N2CC3CC(C3)C2)c(F)c1 (stereo not drawn) [Example 257, N-(4-(3-azabicyclo[3.1.1]heptan-3-yl)-3,5-difluorophenyl)-5-ethyl-2-(tetrahydro-1H-furo[3,4-c]pyrrol-5(3H)-yl)oxazole-4-carboxamide]	1000 to 10000
CCc1oc(N2CC(C)(OC)C2)nc1C(=O)Nc1cc(F)c(N2CC3CC(C3)C2)c(F)c1 [Example 258, N-(4-(3-azabicyclo[3.1.1]heptan-3-yl)-3,5-difluorophenyl)-5-ethyl-2-(3-methoxy-3-methylazetidin-1-yl)oxazole-4-carboxamide]	1000 to 10000
COC1(C)CN(c2nc(C(=O)Nc3cc(C)c(O[C@@H]4C[C@@H]5C[C@@H]5C4)c(O)c3)c(CC(F)(F)F)o2)C1 [Example 263, N-(4-(cis-bicyclo[3.1.0]hexan-3-yloxy)-3-hydroxy-5-methylphenyl)-2-(3-methoxy-3-methylazetidin-1-yl)-5-(2,2,2-trifluoroethyl)oxazole-4-carboxamide]	10 to 1000
COC1(C)CN(c2nc(C(=O)Nc3cc(O)c(OC4CC5CC(C5)C4)c(F)c3)c(CC(F)(F)F)o2)C1 (stereo not drawn) [Example 265, N-(4-(bicyclo[3.1.1]heptan-3-yloxy)-3-fluoro-5-hydroxyphenyl)-2-(3-methoxy-3-methylazetidin-1-yl)-5-(2,2,2-trifluoroethyl)oxazole-4-carboxamide]	1000 to 10000
CCC1(OC)CN(c2nc(C(=O)Nc3cc(O)c(OC4CC5CC(C5)C4)c(F)c3)c(CC(F)(F)F)o2)C1 (stereo not drawn) [Example 266, N-(4-(bicyclo[3.1.1]heptan-3-yloxy)-3-fluoro-5-hydroxyphenyl)-2-(3-ethyl-3-methoxyazetidin-1-yl)-5-(2,2,2-trifluoroethyl)oxazole-4-carboxamide]	1000 to 10000
CCC1(OC)CN(c2nc(C(=O)Nc3cc(O)c(O[C@@H]4C[C@@H]5C[C@@H]5C4)c(F)c3)c(CC(F)(F)F)o2)C1 [Example 268, N-(4-(cis-bicyclo[3.1.0]hexan-3-yloxy)-3-fluoro-5-hydroxyphenyl)-2-(3-ethyl-3-methoxyazetidin-1-yl)-5-(2,2,2-trifluoroethyl)oxazole-4-carboxamide]	1000 to 10000

Results, then the compound that gave them:

EC50 [nM]	SMILES
10 to 1000	CCc1oc(N2CC(CC)(CO)C2)nc1C(=O)Nc1cc(F)c(O[C@@H]2C[C@@H]3C[C@@H]3C2)c(Cl)c1 [Example 220, N-(4-(cis-bicyclo[3.1.0]hexan-3-yloxy)-3-chloro-5-fluorophenyl)-5-ethyl-2-(3-ethyl-3-(hydroxymethyl)azetidin-1-yl)oxazole-4-carboxamide]
10 to 1000	CCc1oc(N2CCCC2)nc1C(=O)Nc1cc(F)c(O[C@@H]2C[C@@H]3C[C@@H]3C2)c(Cl)c1 [Example 222, N-(4-(cis-bicyclo[3.1.0]hexan-3-yloxy)-3-chloro-5-fluorophenyl)-5-ethyl-2-(pyrrolidin-1-yl)oxazole-4-carboxamide]
10 to 1000	CCc1oc(N2CC(C)(OC)C2)nc1C(=O)Nc1cc(C)c(O[C@@H]2C[C@@H]3C[C@@H]3C2)c(F)c1 [Example 226, N-(4-(cis-bicyclo[3.1.0]hexan-3-yloxy)-3-fluoro-5-methylphenyl)-5-ethyl-2-(3-methoxy-3-methylazetidin-1-yl)oxazole-4-carboxamide]
1000 to 10000	CCc1oc(N2CCCOCC2)nc1C(=O)Nc1cc(F)c(O[C@@H]2C[C@@H]3C[C@@H]3C2)c(F)c1 [Example 231, N-(4-(cis-bicyclo[3.1.0]hexan-3-yloxy)-3,5-difluorophenyl)-5-ethyl-2-(1,4-oxazepan-4-yl)oxazole-4-carboxamide]
1000 to 10000	CCc1oc(-n2cccn2)nc1C(=O)Nc1cc(F)c(O[C@@H]2C[C@@H]3C[C@@H]3C2)c(F)c1 [Example 232, N-(4-(cis-bicyclo[3.1.0]hexan-3-yloxy)-3,5-difluorophenyl)-5-ethyl-2-(1H-pyrazol-1-yl)oxazole-4-carboxamide]
1000 to 10000	CCc1oc(N2CC3CCOC3C2)nc1C(=O)Nc1cc(F)c(OC2CC3C[C@H]3C2)c(F)c1 (stereo partly drawn) [Example 233, N-(4-(cis-bicyclo[3.1.0]hexan-3-yloxy)-3,5-difluorophenyl)-5-ethyl-2-(hexahydro-5H-furo[2,3-c]pyrrol-5-yl)oxazole-4-carboxamide]
10 to 1000	CCc1oc(N2CC3COCC3C2)nc1C(=O)Nc1cc(F)c(OC2CC3C[C@H]3C2)c(F)c1 (stereo partly drawn) [Example 237, N-(4-(cis-bicyclo[3.1.0]hexan-3-yloxy)-3,5-difluorophenyl)-5-ethyl-2-(tetrahydro-1H-furo[3,4-c]pyrrol-5(3H)-yl)oxazole-4-carboxamide]
10 to 1000	CCc1oc(N2CCCCCC2)nc1C(=O)Nc1cc(F)c(O[C@@H]2C[C@@H]3C[C@@H]3C2)c(F)c1 [Example 242, 2-(azepan-1-yl)-N-(4-(cis-bicyclo[3.1.0]hexan-3-yloxy)-3,5-difluorophenyl)-5-ethyloxazole-4-carboxamide]
10 to 1000	CCc1oc(N2CC(CC)(CC)C2)nc1C(=O)Nc1cc(F)c(O[C@@H]2C[C@@H]3C[C@@H]3C2)c(F)c1 [Example 243, N-(4-(cis-bicyclo[3.1.0]hexan-3-yloxy)-3,5-difluorophenyl)-2-(3,3-diethylazetidin-1-yl)-5-ethyloxazole-4-carboxamide]
10 to 1000	CCc1oc(N2CC(CC)(OC)C2)nc1C(=O)Nc1ccc(O[C@@H]2C[C@@H]3C[C@@H]3C2)c(F)c1 [Example 246, N-(4-(cis-bicyclo[3.1.0]hexan-3-yloxy)-3-fluorophenyl)-5-ethyl-2-(3-ethyl-3-methoxyazetidin-1-yl)oxazole-4-carboxamide]
1000 to 10000	CCc1oc(N2CC(CC)(OC)C2)nc1C(=O)Nc1cc(F)c(O[C@@H]2C[C@@H]3C[C@@H]3C2)cc1F [Example 251, N-(4-(cis-bicyclo[3.1.0]hexan-3-yloxy)-2,5-difluorophenyl)-5-ethyl-2-(3-ethyl-3-methoxyazetidin-1-yl)oxazole-4-carboxamide]
1000 to 10000	COC1(C)CN(c2nc(C(=O)Nc3cc(O)c(O[C@@H]4C[C@@H]5C[C@@H]5C4)c(F)c3)c(CC(F)(F)F)o2)C1 [Example 267, N-(4-(cis-bicyclo[3.1.0]hexan-3-yloxy)-3-fluoro-5-hydroxyphenyl)-2-(3-methoxy-3-methylazetidin-1-yl)-5-(2,2,2-trifluoroethyl)oxazole-4-carboxamide]
